This note sets out measurements from BindingDB's records for doi:10.1021/jm960459x (University of Minnesota, 1996).

pKi: −log10 of the molar value.

A short description of this assay: Compound was tested for the binding affinity and selectivity by competitive inhibition of radioligands on opioid delta receptor in guinea pig brain membranes.

`CN(C(=O)Cc1ccc(Cl)c(Cl)c1)[C@H](CN1CCCC1)c1cccc(NC(=O)[C@@H](N)CC(=O)O)c1` [(S)-3-Amino-N-[3-((S)-1-{[2-(3,4-dichloro-phenyl)-acetyl]-methyl-amino}-2-pyrrolidin-1-yl-ethyl)-phenyl]-succinamic acid] had a negative logarithm of the Ki (pKi) of 5.97.
The figure for `CN(C(=O)Cc1ccc(Cl)c(Cl)c1)[C@H](CN1CCCC1)c1cccc(NC(=O)[C@H](N)CC(=O)O)c1` [(R)-3-Amino-N-[3-((S)-1-{[2-(3,4-dichloro-phenyl)-acetyl]-methyl-amino}-2-pyrrolidin-1-yl-ethyl)-phenyl]-succinamic acid] is 6.24.
